# Laboratory results from patent US20260138958A1, “SUBSTITUTED N-PHENYLURACILS AND SALTS THEREOF, AND USE THEREOF AS HERBICIDAL ACTIVE SUBSTANCES” (Bayer Aktiengesellschaft, priority 2022, published 2026).
# How the values were obtained:
# Type in all cases: in vivo
# [1] = system: Polygonum convolvulus (POLCO); assay: Post-emergence herbicidal action, greenhouse pot test
# Protocol: (§1) Seeds of monocotyledonous and dicotyledonous weeds and crop plants were placed in sandy loam in plastic or wood-fibre pots, covered with soil and cultivated in a greenhouse under controlled growth conditions. 2 to 3 weeks after sowing, the test plants were treated at the one-leaf stage. The compounds of the invention, formulated in the form of wettable powders (WP) or as emulsion concentrates (EC), were then sprayed onto the green parts of the plants as aqueous suspension or emulsion with addition of 0.5% additive at a water application rate of 600 l/ha (converted). After the test plants had been kept in the greenhouse under optimum growth conditions for about 3 weeks, the activity of the preparations was rated visually in comparison to untreated controls. For example, 100% activity=the plants have died, 0% activity=like control plants.
# [2] = system: Pharbitis purpurea (PHBPU); assay: as above
# Protocol: as §1
# [3] = system: Tripleurospermum inodorum (MATIN); assay: as above
# Protocol: as §1
# [4] = system: Abutilon theophrasti (ABUTH); assay: as above
# Protocol: as §1
# [5] = system: Lolium rigidum (LOLRI); assay: as above
# Protocol: as §1
# [6] = system: Digitaria sanguinalis (DIGSA); assay: as above
# Protocol: as §1
# [7] = system: Setaria viridis (SETVI); assay: as above
# Protocol: as §1
# [8] = system: Viola tricolor (VIOTR); assay: as above
# Protocol: as §1
# [9] = system: Bassia scoparia (KCHSC); assay: as above
# Protocol: as §1
# [10] = system: Echinochloa crus-galli (ECHCG); assay: as above
# Protocol: as §1
# [11] = system: Amaranthus retroflexus (AMARE); assay: as above
# Protocol: as §1
# [12] = system: Veronica persica (VERPE); assay: as above
# Protocol: as §1
# [13] = system: Alopecurus myosuroides (ALOMY); assay: as above
# Protocol: as §1
# [14] = system: Triticum aestivum (TRZAS); assay: Post-emergence crop plant compatibility, greenhouse pot test; conditions: crop plant, post-emergence, 1.25 g/ha
# Protocol: as §1
# The observed effects on selected crop plants are reported here in comparison to the untreated controls (values in %).
Structure (SMILES),Post-emergence effect at 20 g/ha against POLCO in % [1] [%],Post-emergence effect at 1.25 g/ha against PHBPU in % [2] [%],Post-emergence effect at 5 g/ha against PHBPU in % [2] [%],Post-emergence effect at 20 g/ha against PHBPU in % [2] [%],Post-emergence effect at 20 g/ha against MATIN in % [3] [%],Post-emergence effect at 5 g/ha against ABUTH in % [4] [%],Post-emergence effect at 20 g/ha against ABUTH in % [4] [%],Post-emergence effect at 20 g/ha against LOLRI in % [5] [%],Post-emergence effect at 5 g/ha against DIGSA in % [6] [%],Post-emergence effect at 20 g/ha against DIGSA in % [6] [%],Post-emergence effect at 1.25 g/ha against SETVI in % [7] [%],Post-emergence effect at 5 g/ha against SETVI in % [7] [%],Post-emergence effect at 20 g/ha against SETVI in % [7] [%],Post-emergence effect at 1.25 g/ha against VIOTR in % [8] [%],Post-emergence effect at 5 g/ha against VIOTR in % [8] [%],Post-emergence effect at 20 g/ha against VIOTR in % [8] [%],Post-emergence effect at 1.25 g/ha against KCHSC in % [9] [%],Post-emergence effect at 5 g/ha against KCHSC in % [9] [%],Post-emergence effect at 20 g/ha against KCHSC in % [9] [%],Post-emergence effect at 5 g/ha against ECHCG in % [10] [%],further results
Cn1c(C(F)(F)F)cc(=O)n(-c2cc(Oc3ccccc3OCC(=O)OCC3(C#N)CC3)c(Cl)cc2F)c1=O [I.7-7],100,100,100,100,100,100,100,100,100,100,100,100,100,100,100,100,100,100,100,100,Post-emergence effect at 5 g/ha against POLCO in % [1]: 100%; Post-emergence effect at 5 g/ha against MATIN in % [3]: 100%; Post-emergence effect at 20 g/ha against ECHCG in % [10]: 100%; Post-emergence effect at 1.25 g/ha against AMARE in % [11]: 100%; Post-emergence effect at 5 g/ha against AMARE in % [11]: 100%; Post-emergence effect at 20 g/ha against AMARE in % [11]: 100%; Post-emergence effect at 1.25 g/ha against VERPE in % [12]: 100%; Post-emergence effect at 5 g/ha against VERPE in % [12]: 100%; Post-emergence effect at 20 g/ha against VERPE in % [12]: 100%; Post-emergence effect at 5 g/ha against ALOMY in % [13]: 80%; Post-emergence effect at 20 g/ha against ALOMY in % [13]: 100%; Post-emergence effect at 1.25 g/ha against TRZAS in % [14]: 10%
Cn1c(C(F)(F)F)cc(=O)n(-c2cc(Oc3ccccc3OCC(=O)OCC3CC3(F)F)c(Cl)cc2F)c1=O (centres unmarked) [I.7-8],100,80,100,100,100,100,100,80,100,100,100,100,100,100,100,100,100,100,100,100,Post-emergence effect at 5 g/ha against POLCO in % [1]: 100%; Post-emergence effect at 5 g/ha against MATIN in % [3]: 100%; Post-emergence effect at 1.25 g/ha against ABUTH in % [4]: 100%; Post-emergence effect at 1.25 g/ha against DIGSA in % [6]: 100%; Post-emergence effect at 20 g/ha against ECHCG in % [10]: 100%; Post-emergence effect at 1.25 g/ha against AMARE in % [11]: 100%; Post-emergence effect at 5 g/ha against AMARE in % [11]: 100%; Post-emergence effect at 20 g/ha against AMARE in % [11]: 100%; Post-emergence effect at 1.25 g/ha against VERPE in % [12]: 100%; Post-emergence effect at 5 g/ha against VERPE in % [12]: 100%; Post-emergence effect at 20 g/ha against VERPE in % [12]: 100%; Post-emergence effect at 5 g/ha against ALOMY in % [13]: 80%; Post-emergence effect at 20 g/ha against ALOMY in % [13]: 100%; Post-emergence effect at 1.25 g/ha against TRZAS in % [14]: 20%
Cn1c(C(F)(F)F)cc(=O)n(-c2cc(Oc3ccccc3OCC(=O)OCC3CC3(C)C)c(Cl)cc2F)c1=O (centres unmarked) [I.7-9],100,100,100,100,100,100,100,90,100,100,100,100,100,100,100,100,90,100,100,100,Post-emergence effect at 1.25 g/ha against ABUTH in % [4]: 100%; Post-emergence effect at 1.25 g/ha against DIGSA in % [6]: 100%; Post-emergence effect at 1.25 g/ha against ECHCG in % ([10]; 1.25 g/ha): 80%; Post-emergence effect at 20 g/ha against ECHCG in % [10]: 100%; Post-emergence effect at 1.25 g/ha against AMARE in % [11]: 100%; Post-emergence effect at 5 g/ha against AMARE in % [11]: 100%; Post-emergence effect at 20 g/ha against AMARE in % [11]: 100%; Post-emergence effect at 1.25 g/ha against VERPE in % [12]: 90%; Post-emergence effect at 5 g/ha against VERPE in % [12]: 100%; Post-emergence effect at 20 g/ha against VERPE in % [12]: 100%; Post-emergence effect at 20 g/ha against ALOMY in % [13]: 100%; Post-emergence effect at 1.25 g/ha against TRZAS in % [14]: 20%
